Laboratory results published in patent publication US8394783B2, “Polysaccharide gel formulation having multi-stage bioactive agent delivery” (Allergan, Inc., priority 2007, dated 2013).

Tests used:
Hyaluronidase [1] = assay: Enzymatic degradation study (Morgan-Elson colorimetric assay); assay type: biochemical; conditions: generally an order of magnitude less TA gives the same inhibition as CSA
Procedure: The HA filling gels prepared in Examples 1 and 2, were evaluated for resistance to enzymatic degradation using the Morgan-Elson colorimetric assay. This assay was applied to estimate the extend of enzymatic degradation by measuring changes in the molecular weight of the HA chains.
Hyaluronidase (0.1-10 mg) was added to each HA formulation, incubated for 10-250 mins at 37° C. followed by addition of 0.1 mL of a 0.8 M potassium tetraborate solution and heating at 100° C. for 10 min. The samples were supplemented with 3 mL of a 10% (wt) p-dimethylaminobenzaldehyde solution in acetic acid and incubated at 37° C. for 10-120 mins. The process was repeated for each HA formulation, omitting the enzyme addition, to prepare a control sample. The change in the optical density (OD) at 585 nm between the enzymatically degraded sample and the control sample was used to quantify the extent of degradation for each formulation.

Hyaluronidase [2] = assay: Enzymatic degradation study (SEC-MALS soluble HA assay); assay type: biochemical
Excerpt: The HA filling gels prepared in Examples 1 and 2, were further evaluated for resistance to enzymatic degradation by using a SEC-MALS (Size Exclusion Multi-Angle Light Scattering) based soluble HA assay. This assay was applied to quantify degradation by evaluating the soluble HA content in each sample (defined as the portion of the gel that can pass through a 0.2-1.0 μm filter). The difference in the soluble HA content, between an enzymatically degraded sample and a control sample was used to quantify the extent of degradation for each HA formulation.
The SEC-MALS tests were performed using an Agilent size exclusion chromatography system equipped with Wyatt light scattering and refractive index units. Hyaluronidase (0.1-10 mg) was added to each HA formulation, incubated for 10-250 mins at 37° C. followed by addition of 0.1 ml of a 0.8 M potassium tetraborate solution and heating at 100° C. for 10 mins. The samples were diluted in PBS, filtered through a 0.2-1.0 μm filter and injected into the SEC-MALS system. The process was repeated for each HA formulation, omitting the enzyme addition, to prepare a control sample. The soluble HA content of the enzymatically degraded sample, the control sample as well as the difference between the two is summarized in FIG. 3.

inhibitory activity of TA compared with CSA (Hyaluronidase [1]): higher inhibitory activity than CSA
inhibitory activity of TA compared with CSA (Hyaluronidase [2]): significantly higher than that of CSA
Structure (SMILES): O=C(OC[C@H]1O[C@@H](OC(=O)c2cc(O)c(O)c(OC(=O)c3cc(O)c(O)c(O)c3)c2)[C@H](OC(=O)c2cc(O)c(O)c(OC(=O)c3cc(O)c(O)c(O)c3)c2)[C@@H](OC(=O)c2cc(O)c(O)c(OC(=O)c3cc(O)c(O)c(O)c3)c2)[C@@H]1OC(=O)c1cc(O)c(O)c(OC(=O)c2cc(O)c(O)c(O)c2)c1)c1cc(O)c(O)c(OC(=O)c2cc(O)c(O)c(O)c2)c1 [TA, tannic acid]
